Data published in BindingDB's records for doi:10.1007/s10822-022-00478-x (Roche Innovation Center Basel, F. Hoffmann-La Roche Ltd., 2022).

Target: cAMP and cAMP-inhibited cGMP 3',5'-cyclic phosphodiesterase 10A (Homo sapiens, UniProt Q9Y233)
Assay: PDE10A assay
Method in brief: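 Human PDE10A (2 ng/well) preincubated 15 min RT with compound in HEPES pH 7.5, 10 mM MgCl2, BSA, then reacted 15 min with 50 nM [3H]cGMP/cGMP substrate. Stopped with Y-Si SPA beads; bound radioactivity counted, IC50 from four-parameter logistic, pIC50 = −log10(IC50).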

Question: With `Cn1cncc1Cn1nc(-c2ccccn2)cc1NC(=O)c1nc(C2CC2)ccc1Nc1cncnc1` [US8470820, 37] as the compound, how does the IC50 read?
Answer: 1.51 nM

Question: `COCCn1nc(-c2ccccn2)cc1NC(=O)c1nc(C2CC2)ccc1Nc1cncnc1` [US8470820, 38] was tested. Which IC50 did it give?
Answer: 0.18 nM

Question: `Cn1nc(-c2ccc(Cl)cn2)cc1NC(=O)c1nc(C2CC2)ccc1Nc1cncnc1` [US8470820, 39] was tested. Which IC50 did it give?
Answer: 3.16 nM

Question: With `Cn1nc(-c2ccc3ccccc3n2)cc1NC(=O)c1nc(C2CC2)ccc1Nc1cncnc1` [US8470820, 40] as the compound, how does the IC50 read?
Answer: 0.08 nM

Question: For `Cn1nc(-c2cccc(Cl)n2)cc1NC(=O)c1nc(C2CC2)ccc1Nc1cncnc1` [US8470820, 41], which IC50 is on record?
Answer: 2.77 nM

Question: Which IC50 does the source give for `CN1CCC(n2nc(-c3ccccn3)cc2NC(=O)c2nc(C3CC3)ccc2Nc2cncnc2)CC1` [US8470820, 43] here?
Answer: 4.15 nM

Question: How did the IC50 turn out when `COc1ccc(-c2nnc(NC(=O)c3nc(C4CC4)ccc3Nc3cncnc3)s2)cc1` [US8470820, 44] was run?
Answer: 1790 nM

Question: With `O=C(Nc1nnc(-c2ccc(F)cc2)s1)c1nc(C2CC2)ccc1Nc1cncnc1` [US8470820, 45] as the compound, how does the IC50 read?
Answer: 6200 nM

Question: How did the IC50 turn out when `O=C(Nc1ccc(-c2ccccn2)s1)c1nc(C2CC2)ccc1Nc1cncnc1` [US8470820, 50] was run?
Answer: 1.43 nM

Question: For `O=C(Nc1cc(-c2ccccn2)no1)c1nc(C2CC2)ccc1Nc1cncnc1` [US8470820, 51], which IC50 is on record?
Answer: 3.85 nM

Question: Which IC50 does the source give for `COCc1ccc(Nc2cncnc2)c(C(=O)Nc2cc(-c3ccccn3)nn2C)n1` [US8470820, 59] here?
Answer: 6.57 nM

Question: Which IC50 does the source give for `Cn1nc(NC(=O)c2nc(C3CC3)ccc2Nc2cncnc2)cc1-c1ccccn1` [US8470820, 63] here?
Answer: 126 nM

Question: With `O=C(Nc1nnc(-c2ccccn2)o1)c1nc(C2CC2)ccc1Nc1cncnc1` [US8470820, 64] as the compound, how does the IC50 read?
Answer: 2580 nM

Question: For `CNC(=O)c1c(NC(=O)c2nc(C3CC3)ccc2Nc2cncnc2)cnn1CCOC` [US8703768, 11], which IC50 is on record?
Answer: 0.83 nM

Question: How did the IC50 turn out when `Cn1cc(NC(=O)c2nc(C3CC3)ccc2Nc2cncnc2)c(C(=O)N2CCC2)n1` [US8703768, 30] was run?
Answer: 33 nM

Question: How did the IC50 turn out when `CN(C)C(=O)c1nn(-c2ccccn2)cc1NC(=O)c1nc(C2CC2)ccc1Nc1cncnc1` [US8703768, 74] was run?
Answer: 6.78 nM

Question: Which IC50 does the source give for `O=C(NC1CC1)c1ccsc1NC(=O)c1nc(C2CC2)ccc1Nc1cncnc1` [US8703768, 89] here?
Answer: 0.48 nM

Question: How did the IC50 turn out when `O=C(Nc1sccc1C(=O)N1CCOCC1)c1nc(C2CC2)ccc1Nc1cncnc1` [US8703768, 90] was run?
Answer: 0.44 nM

Question: For `CNC(=O)c1c(NC(=O)c2nc(C3CC3)cnc2Nc2cncnc2)cnn1CCC(F)(F)F` [US8703768, 173], which IC50 is on record?
Answer: 19 nM

Question: For `CCc1ccc(NC(=O)c2nc(C3CC3)cnc2Nc2cncnc2)c(C(=O)NCC(C)(C)O)n1` [US8703768, 181], which IC50 is on record?
Answer: 0.41 nM

Question: How did the IC50 turn out when `CCN(C)C(=O)c1ncccc1NC(=O)c1nc(C2CC2)cnc1Nc1cncnc1` [US8703768, 199] was run?
Answer: 5.93 nM

Question: How did the IC50 turn out when `CCN(C)C(=O)c1c(NC(=O)c2nc(C3CC3)cnc2Nc2cncnc2)cnn1C` [US8703768, 203] was run?
Answer: 25 nM

Question: `CNC(=O)c1cc(C(C)C)ccc1NC(=O)c1nc(C2CC2)cnc1Nc1cncnc1` [US8703768, 208] was tested. Which IC50 did it give?
Answer: 1.15 nM

Question: With `COCc1ccc(NC(=O)c2nc(C3CC3)cnc2Nc2cncnc2)c(C(=O)NCC(C)(C)O)n1` [US8703768, 210] as the compound, how does the IC50 read?
Answer: 0.48 nM

Question: `COCCOc1ccc(NC(=O)c2nc(C3CC3)cnc2Nc2cncnc2)c(C(=O)NCC(C)(C)O)c1` [US8703768, 213] was tested. Which IC50 did it give?
Answer: 0.74 nM

Question: With `CC(C)(O)CNC(=O)c1cc(OCCO)ccc1NC(=O)c1nc(C2CC2)cnc1Nc1cncnc1` [US8703768, 215] as the compound, how does the IC50 read?
Answer: 0.49 nM

Question: With `CNC(=O)c1cc(OCCO)ccc1NC(=O)c1nc(C2CC2)cnc1Nc1cncnc1` [US8703768, 216] as the compound, how does the IC50 read?
Answer: 0.77 nM

Question: How did the IC50 turn out when `CNC(=O)c1cc(OC)ccc1NC(=O)c1nc(C2CC2)cnc1Nc1cncnc1` [US8703768, 225] was run?
Answer: 0.48 nM

Question: For `CNC(=O)c1c(NC(=O)c2nc(OC)cnc2Nc2cncnc2)cnn1C` [US8703768, 258], which IC50 is on record?
Answer: 141 nM

Question: Which IC50 does the source give for `CC(C)(O)CNC(=O)c1cc(C#N)ccc1NC(=O)c1nc(C2CC2)cnc1Nc1cncnc1` [US8703768, 262] here?
Answer: 0.71 nM

Question: `O=C(NCCO)c1ncccc1NC(=O)c1nc(C2CC2)cnc1Nc1cncnc1` [US8703768, 271] was tested. Which IC50 did it give?
Answer: 0.36 nM

Question: For `CC(C)(CO)NC(=O)c1ncccc1NC(=O)c1nc(C2CC2)cnc1Nc1cncnc1` [US8703768, 273], which IC50 is on record?
Answer: 0.31 nM

Question: For `CNC(=O)c1cc(NC(C)=O)ccc1NC(=O)c1nc(C2CC2)cnc1Nc1cncnc1` [US8703768, 274], which IC50 is on record?
Answer: 0.38 nM

Question: How did the IC50 turn out when `CC1(NC(=O)c2ncccc2NC(=O)c2nc(C3CC3)cnc2Nc2cncnc2)COC1` [US8703768, 275] was run?
Answer: 0.38 nM

Question: `Cc1ccc(NC(=O)c2nc(C3CC3)cnc2Nc2cncnc2)c(C(=O)N(C)C)n1` [US8703768, 276] was tested. Which IC50 did it give?
Answer: 13 nM

Question: `Cc1ncc(NC(=O)c2nc(C3CC3)cnc2Nc2cncnc2)c(C(=O)NCC(C)(C)O)n1` [US8703768, 281] was tested. Which IC50 did it give?
Answer: 0.64 nM

Question: Which IC50 does the source give for `CNC(=O)c1cc(F)c(F)cc1NC(=O)c1nc(C2CC2)cnc1Nc1cncnc1` [US8703768, 288] here?
Answer: 0.74 nM

Question: For `O=C(Nc1cc(F)c(F)cc1C(=O)N1CCC1)c1nc(C2CC2)cnc1Nc1cncnc1` [US8703768, 291], which IC50 is on record?
Answer: 28 nM

Question: For `CNC(=O)c1ccc(F)cc1NC(=O)c1nc(C2CC2)cnc1Nc1cncnc1` [US8703768, 292], which IC50 is on record?
Answer: 0.68 nM

Question: For `CNC(=O)c1c(F)cc(F)cc1NC(=O)c1nc(C2CC2)cnc1Nc1cncnc1` [US8703768, 299], which IC50 is on record?
Answer: 0.32 nM

Question: `CN(C)C(=O)c1c(F)cccc1NC(=O)c1nc(C2CC2)cnc1Nc1cncnc1` [US8703768, 308] was tested. Which IC50 did it give?
Answer: 0.92 nM

Question: How did the IC50 turn out when `O=C(Nc1cccc(F)c1C(=O)N1CCC1)c1nc(C2CC2)cnc1Nc1cncnc1` [US8703768, 309] was run?
Answer: 1.67 nM

Question: `CCN(C)c1cnc(Nc2cncnc2)c(C(=O)Nc2cnn(C)c2C(=O)NC)n1` [US8703768, 311] was tested. Which IC50 did it give?
Answer: 19 nM

Question: `CNC(=O)c1cc(F)ccc1NC(=O)c1nc(C2CC2)cnc1Nc1cncnc1` [US8703768, 312] was tested. Which IC50 did it give?
Answer: 0.95 nM

Question: With `CN(C)CCNC(=O)c1c(NC(=O)c2nc(C3CC3)cnc2Nc2cncnc2)cnn1C` [US8703768, 313] as the compound, how does the IC50 read?
Answer: 51 nM

Question: How did the IC50 turn out when `CCOC(=O)CCc1ccc(NC(=O)c2nc(C3CC3)cnc2Nc2cncnc2)c(C(=O)NC)c1` [US8703768, 321] was run?
Answer: 0.59 nM

Question: How did the IC50 turn out when `CNC(=O)c1cc(CCC(=O)O)ccc1NC(=O)c1nc(C2CC2)cnc1Nc1cncnc1` [US8703768, 328] was run?
Answer: 0.39 nM

Question: How did the IC50 turn out when `Cn1ncc(NC(=O)c2nc(C3CC3)cnc2Nc2cncnc2)c1C(=O)N1CCCO1` [US8703768, 335] was run?
Answer: 0.75 nM

Question: With `Cc1nn2ccc(CCc3nc(N4CCCC4)nn3C)nc2c1C` [US9617271, 53] as the compound, how does the IC50 read?
Answer: 17 nM

Question: Which IC50 does the source give for `Cc1cc(C#Cc2nc(N3CCCC3)nn2C)nn2c(C)c(C(F)(F)F)nc12` [US9617271, 54] here?
Answer: 0.64 nM

Question: With `Cc1cn2nc(C#Cc3nc(N4CCCC4)nn3C)ccc2n1` [US9617271, 67] as the compound, how does the IC50 read?
Answer: 9.21 nM

Question: For `Cn1cc(-c2ccccc2)nc1CCc1cnc2ccccc2n1` [US9834564, Compound 20], which IC50 is on record?
Answer: 21 nM

Question: For `Cn1cc(-c2ccccc2)nc1C#Cc1ccc2nc(C(F)(F)F)cn2n1` [US10399985, Example 8], which IC50 is on record?
Answer: 12 nM

Question: For `Cc1nc2c(C)c(C)c(CCc3nc(-c4ccccc4)cn3C)nn2c1C` [US10399985, Example 14], which IC50 is on record?
Answer: 2.4 nM

Question: `Cc1nc2ccc(CCc3nc(-c4ccccc4)cn3C)nn2c1CO` [US10399985, Example 15] was tested. Which IC50 did it give?
Answer: 21 nM

Question: With `Cc1nn2ccc(CCc3nc(-c4ccccc4)cn3C)nc2c1C` [US10399985, Example 16] as the compound, how does the IC50 read?
Answer: 4.89 nM

Question: With `Cc1c(C(F)F)nc2ccc(CCc3nc(-c4ccccc4)cn3C)nn12` [US10399985, Example 19] as the compound, how does the IC50 read?
Answer: 5.6 nM

Question: For `Cc1c(C(F)(F)F)nc2ccc(OCc3nc(-c4ccccc4)cn3C)nn12` [US10399985, Example 36], which IC50 is on record?
Answer: 34 nM
